What was measured:
[1] = system: Drosophila epilepsy model; design: method as in PMID 39720593; settings: cited from earlier work
[2] = system: Drosophila mutant KCNT1 lines (G288S, R398Q, R928C); experiment: Bang-sensitive behavioral seizure assay, statements for all three Drosophila mutant KCNT1 lines; format: in vivo, Drosophila melanogaster; settings: drug in food, 1 nM to 1 μM, each of the three mutant lines
Text: The Drosophila melanogaster lines carrying the WT human KCNT1 transgene (NM_020822_3) or KCNT1 mutant G288S, R398Q or R928C transgene placed downstream of the yeast UAS promoter, have been described previously.[11] WT or mutant human UAS‐KCNT1 flies were crossed to flies expressing the GAL4 transcriptional activator under the control of the GAD1 promoter (GABAergic driver, Bloomington stock number 51630 P2) to drive expression of KCNT1 in GABAergic neurons, involved in neuronal inhibition.[11]
The bang‐sensitive behavioral assay (also known as the banging assay) was used to test for the presence of a seizure phenotype in Drosophila.[11], [30] Experiments were performed and scored, as previously described,[11] with a minimum of 50 Drosophila tested for each genotype and drug concentration.
Four drugs were selected for in vivo analysis to determine their effects on the seizure phenotypes in transgenic Drosophila lines with human mutant KCNT1 channels. Bepridil, a nonselective KCNT1 inhibitor was included for comparison. Drosophila food with and without drugs was prepared as previously described.[11] All chemicals were obtained from Sigma‐Aldrich (Gillingham, UK) apart from antrafenine hydrochloride (Toronto Research Chemicals, Canada) and regorafenib (USP, Germany).
Drosophila crosses were set up, and the resulting embryos were collected, as previously described.[11] A range of concentrations of each drug dissolved in Drosophila food, between 0.001 μM and 1 μM, were used in the experiments. Multiple replicates were performed for each dosage of the drugs and controls. Controls were vehicle controlled (VC), which was the normal food with just the solvent ethanol present (1 μl/1 ml) in the Drosophila food, and normal food (NF) control where no drug or solvent (ethanol) was added in the Drosophila food.
In all experiments, experimenters were not blinded to variants or treatments, nor were samples randomly assigned to groups. Sample sizes were not calculated in advance and no data were excluded from the analysis. Data were analyzed using GraphPad Prism 9 software (San Diego, CA, USA). All values are reported as mean ± standard error of the mean (SEM). All data passed normality and lognormality Shapiro–Wilk tests, determined by GraphPad Prism 9. In the experiments analyzing the effects of drugs in Drosophila, statistical significance of differences between groups was determined using Brown‐Forsythe and Welch's analysis of variance (ANOVA) tests (Supplementary Table S3), assuming non‐equal SDs, followed by Dunnett's multiple comparisons tests (GraphPad Prism 9). The results of the Dunnett's multiple comparisons tests are shown in Supplementary Table S4, where “N” represents independent trials using independent fly crosses, with the total number of flies for each condition shown in brackets.

[3] = system: Drosophila mutant KCNT1 lines (G288S, R398Q, R928C); design: method as in PMID 38336906; settings: Drosophila models of KCNT1 epilepsy; cited from earlier work

| SMILES | reduction of seizures [1] | further results |
| --- | --- | --- |
| O=C1NC(=O)C(c2ccccc2)(c2ccccc2)N1 [Phenytoin] | approximately 30% | – |
| CC(C)COCC(CN(Cc1ccccc1)c1ccccc1)N1CCCC1 (centres unmarked) [bepridil] | – | effect on seizure activity (in words) [2]: exacerbate the seizure phenotype |
| Nc1nnc(-c2cccc(Cl)c2Cl)c(N)n1 [lamotrigine] | approximately 30% | – |
| C=C[C@H]1C[N@@]2CC[C@H]1C[C@@H]2[C@@H](O)c1ccnc2ccc(OC)cc12 [quinidine] | – | effect on seizure phenotype (in words) [3]: exacerbate the seizure phenotype |
| CCCC(CCC)C(=O)O [valproate] | approximately 30% | – |
